Several values for one entry are separate records, joined by “and”; a condition that tells them apart may be missing. Identical values can stand only once.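 Growth conditions: 96-well plates. Treatment: test compound, 48 hours, 5 concentrations. Analysis: linear interpolation between bracketing concentrations; unreached endpoints set to highest concentration. At the GI50, growth is halved. TGI denotes the concentration required for complete inhibition of growth.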
How the values were obtained:
Assay in all cases: growth of human tumour cells (NCI), 48 h
SF-268 CNS = system: SF-268 CNS
SK-MEL-5 melanoma = system: SK-MEL-5 melanoma
U251 CNS = system: U251 CNS
SR leukemia = system: SR leukemia
A549 NSCLC = system: A549 NSCLC
UACC-257 melanoma = system: UACC-257 melanoma
DU-145 prostate = system: DU-145 prostate
OVCAR-8 ovarian = system: OVCAR-8 ovarian
RPMI-8226 leukemia = system: RPMI-8226 leukemia
786-0 renal = system: 786-0 renal
OVCAR-4 ovarian = system: OVCAR-4 ovarian
HOP-92 NSCLC = system: HOP-92 NSCLC
RXF 393 renal = system: RXF 393 renal
BT-549 breast = system: BT-549 breast
HT29 colon = system: HT29 colon
SNB-75 CNS = system: SNB-75 CNS

Row | Compound | TGI (SF-268 CNS) [µM] | TGI (SK-MEL-5 melanoma) [µM] | TGI (U251 CNS) [µM] | TGI (SR leukemia) [µM] | TGI (A549 NSCLC) [µM] | TGI (UACC-257 melanoma) [µM] | TGI (DU-145 prostate) [µM] | TGI (OVCAR-8 ovarian) [µM] | TGI (RPMI-8226 leukemia) [µM] | TGI (786-0 renal) [µM] | TGI (OVCAR-4 ovarian) [µM] | TGI (HOP-92 NSCLC) [µM] | TGI (RXF 393 renal) [µM] | TGI (BT-549 breast) [µM] | TGI (HT29 colon) [µM] | TGI (SNB-75 CNS) [µM] | GI50 (RXF 393 renal)
1 | O=C1C(Cl)C(c2cccc(Br)c2)N1c1c(O)c(Cl)cc(Br)c1Cl (centres undefined) | 44.3 | 27.2 | 25.3 | 56.3 | 40 | 43.9 | 32.9 | > 100 | 37.9 | > 100 | 24.7 | 29 | 24.3 | > 100 | 23 |  | 
2 | O=C1c2ccccc2-n2c1nc1cc(Cl)ccc1c2=O | > 100 | 76.4 | > 100 | > 100 | > 100 | 29.1 | > 100 | > 100 | > 100 | > 100 | > 100 | > 100 | > 100 | > 100 | > 100 | > 100 | 
3 | Cc1cc(S(=O)(=O)Nc2nc(N)nc(N(C)C)n2)c(SC(C(=O)O)c2ccccc2)cc1Cl (centres undefined) | > 10 | > 10 | > 10 | > 10 | > 10 | > 10 | > 10 | > 10 | > 10 | > 10 | > 10 | > 10 | > 10 | > 10 | > 10 | > 10 | 
4 | COC(=O)c1cn(CCCCO)nn1 | > 100 | > 100 | > 100 | > 100 | > 100 | > 100 | > 100 | > 100 |  | > 100 | > 100 | > 100 | > 100 | > 100 | > 100 | > 100 | 
5 | O=C(Oc1ccc(OC(Oc2ccccc2)c2ccccc2)cc1)c1ccccc1 (centres undefined) | 23 | > 31.6 | > 100 | > 31.6 | > 31.6 | > 31.6 | > 31.6 | > 31.6 | 24.1 | > 31.6 | > 31.6 |  | > 100 | > 31.6 | > 31.6 | > 31.6 | 
6 | COc1cc2c(cc1OC)CN1CCc3ccccc3CC1C2 (centres undefined) |  | > 100 | > 100 | 23.5 | > 100 | > 100 | > 100 | > 100 |  | > 100 | 98.2 | > 100 |  | > 100 | > 100 | > 100 | 
7 | CCOC(=O)c1nc2cc(C(F)(F)F)ccc2nc1Oc1ccc(C(=O)OC)cc1 | > 100 | > 100 | > 100 | > 100 | > 100 | > 100 | > 100 | > 100 | > 100 | > 100 | > 100 | > 100 | > 100 | > 100 |  | > 100 | 
8 | O=C1CCCCCCCCCCC1CN(Cc1ccccc1)Cc1ccccc1 (centres undefined) | > 100 | 32.4 | 49.6 | > 100 | > 100 | > 100 | > 100 | > 100 | > 100 | > 100 | > 100 | > 100 | 70.2 | > 100 |  |  | 
9 | ClCCCC1COc2ccccc2O1 (centres undefined) | > 100 | > 100 | > 100 | > 100 | > 100 | > 100 | > 100 | > 100 |  | > 100 | > 100 | > 100 | > 100 | > 100 | > 100 | > 100 | 
10 | CC(C(=O)N1C(=O)N(C(=O)[C@H](C)C(O)c2ccccc2)[C@H](c2ccccc2)[C@H]1c1ccccc1)[C@@H](O)c1ccccc1 (some centres undefined) | > 100 | 28.1 | > 100 | > 100 | > 100 | 84.4 | > 100 | > 100 |  | 82.8 | > 100 | 83.3 |  | 71 | > 100 | > 100 | 
11 | Cc1ccc(N=Nc2c(C)nn(C(=O)CC(=O)Nc3ccc(Cl)cc3)c2C)cc1C | > 100 | > 100 | > 100 | 39.7 | > 100 | > 100 | > 100 | > 100 | > 100 | > 100 | > 100 | 64.3 | 67.2 | > 100 | > 100 | 48.7 | 
12 | Nc1nc(Sc2ccc([N+](=O)[O-])cn2)c2[nH]cnc2n1 | > 100 | 31.2 | > 64.3 | > 100 | 62.1 | > 100 | 43.8 | > 80.4 | > 100 | > 52.8 | > 61.2 | 38.7 | > 30.4 | 52.1 | > 74.3 | 63.9 | 
13 | O=C1Cc2c(-c3ccccc3)cc(-c3ccc4ccccc4c3)nc2-c2ccccc2N1 | 29.9 | > 100 | > 100 | > 100 | > 100 | > 100 | > 100 | 4.9 | > 100 | > 100 | > 100 | > 100 | 13.1 | > 100 | 15.9 | 5.38 | 
14 | Nc1ccc(-c2nc3ccccc3s2)cc1I | > 100 | > 100 | > 88.5 | > 100 | > 100 | > 100 | > 100 | > 100 | > 100 | > 100 | > 100 | > 54.5 | > 100 | > 100 | > 100 | 99.4 | 
15 | CCN(CC)c1nc(=O)c(C(=O)C(C)(C)C)c(C(C)(C)C)o1 | > 100 | > 100 | > 100 | > 100 | > 100 | > 100 | > 100 | > 100 | > 100 | > 100 | > 100 | > 100 | > 100 | > 100 | > 100 | > 100 | 
16 | Nc1ccc(-c2nc3ccccc3s2)cc1F | > 100 | 40.9 | > 100 | 53.9 | > 100 | > 100 | > 100 | > 100 |  | 50.2 | > 100 | > 100 | > 100 | > 100 | > 100 | 82 | 
17 | Cc1cn(CCCCOC(=O)NC(CCCNC(N)=O)C(=O)O)c(=O)[nH]c1=O (centres undefined) | > 100 |  | > 100 | > 100 | > 100 | > 100 | > 100 | > 100 | > 100 | > 100 | > 100 | > 100 | > 100 | > 100 | > 100 | > 100 | 
18 | CC(C)N(C(=O)c1ccc(NCc2cc(O)ccc2O)cc1)C(C)C | 36.2 | 37.8 | 32.6 | > 100 | > 100 | 31.4 | 30 | 35.4 |  | 26.6 | 28.3 | 24.9 | 28.3 | 30.7 | 35 | > 100 | 
19 | Cc1cccc(Nc2nc(NNC(=O)Cc3ccccc3)nc(NNC(=O)c3ccncc3)n2)c1 | > 10 | > 10 |  | > 10 | > 10 | > 10 | > 10 | > 10 | > 10 | > 10 | > 10 | > 10 | > 10 | > 10 | > 10 | > 10 | 
20 | CCC(C)C(NC(=O)c1c2ccccc2nc2ccccc12)C(=O)O (centres undefined) | > 100 | > 100 | > 100 | > 100 | > 100 | > 100 | > 100 | > 100 | > 100 | > 100 | > 100 | > 100 |  | 94.1 | > 100 | > 100 | 
21 | CN(C)c1ccc(/C=C2\N=C(c3ccccc3)N(/N=C3\C(=O)Nc4ccccc43)C2=O)cc1 | > 100 | > 100 | > 100 | > 100 | > 100 | > 100 | > 100 | > 100 |  | > 100 | > 100 | > 100 | > 100 | > 100 | > 100 | > 100 | 
22 | Cc1ccc(Cc2nn(C)c(=O)n2-n2cccc2)cc1 | > 100 | > 100 | > 100 | > 100 | > 100 | > 100 | > 100 | > 100 | > 100 | > 100 | > 100 |  | > 100 | > 100 | > 100 | > 100 | 
23 | Cc1ccc(S(=O)(=O)c2ccsc2NC(=O)c2ccccc2)cc1 | > 82.5 | > 100 | > 100 | > 100 | > 100 | > 100 | > 100 | 98.5 | > 100 | > 79.6 | 73.6 | > 100 |  | > 100 | > 100 | > 93.3 | 
24 | O=C1CSC(c2ccccc2[N+](=O)[O-])N1c1ccc(-n2c(-c3ccccc3)nc3ccccc3c2=O)cc1 (centres undefined) | > 100 | > 100 | 32.7 | > 100 | > 100 | > 100 | > 100 | > 100 | > 100 | > 100 | > 100 | 60.2 |  | > 100 | > 100 | 34.9 | 
25 | C[N+]1(CCCC[N+]2(C)CCCCCCC2)CCCCCCC1 | > 100 | > 100 | > 100 | > 100 | > 100 | > 100 | > 100 | > 100 | > 100 | > 100 | > 100 | > 100 | > 100 | > 100 | > 100 |  | 
26 | N#Cc1c(-c2ccccc2)c(C#N)c(=S)n(C2OCC(O)C(O)C2O)c1N (centres undefined) | > 100 | > 100 |  | > 100 | > 100 | > 100 | > 100 | > 100 | > 100 | > 100 |  |  | > 100 | > 100 | > 100 | > 100 | 26.7 µM and > 100 µM
27 | COc1ccc2[nH]cc(CN3CCC(CO)(c4ccccc4)CC3)c2c1 | 34.8 | 27.1 | > 100 | 52.8 | 57.3 | 37.2 | > 100 | > 100 | 66 | 28.6 | > 100 |  | > 100 | > 100 | > 100 | 87.6 | 
28 | Cc1ccc(C(=O)c2[nH]c(Nc3ccc(Cl)cc3)c(C(=S)Nc3ccccc3)c2N)cc1 | 23.3 |  | 9.02 | 10.7 | 5.29 | 43.7 | 24.8 | 18.1 | 18 | 6.4 | 4.32 | 28 | 17.4 | 20.5 | 16.8 | 7.14 | 
29 | Cc1ccc(-c2n[nH]c(=O)n2N2C(=O)C=CC2=O)cc1 | > 100 | > 100 | > 100 | > 100 | > 100 | > 100 | > 100 | > 100 |  | > 100 | > 100 |  | > 100 | > 100 | > 100 |  | 
30 | CN1CC(S(=O)(=O)c2ccccc2)CC(S(=O)(=O)c2ccccc2)C1c1ccccc1 (centres undefined) | 37.7 | 28.6 | 25.8 | 78.3 | > 100 | 41 | 60.8 | > 100 |  | 25.5 | 34.5 | 37.7 | 37.3 | 28.5 | 29.6 |  | 

— PubChem BioAssay (NCI)
